The assay relates to Escherichia coli (E. coli DSM 682). Briefly: Bactericidal activity of cleaner/disinfecting formulations according to DIN EN 1276-2010 under dirty conditions. In kind it is cell-based. Particulars: no ethoxylated alkanol, 0.3% bovine albumin, 35° C., 5 min contact time. On the procedure:
For biological activity testing, the following microorganisms were used: Escherichia coli(E. coli DSM 682)
Lutensol® XP 40 and benzalkonium chloride (BAC) were formulated into a dilutable concentrated hard-surface cleaner. For comparison, corresponding formulations containing Lutensol® XP 70 or Lutensol® A 7 N instead of Lutensol® XP 40 were also prepared. The finished formulations were pre-dissolved 1:80 in standardized hard water (DIN EN 1276-2010) and then diluted to 80% by adding 1 ml of the inoculate and 1 ml of bovine albumin solution to 8 ml of the pre-dissolved cleaner, so that in-test a dilution of 1:100 was obtained.
Antimicrobial testing of the above formulations in 1:100 dilution was done according to European Standard (DIN EN 1276-2010) under dirty conditions, i.e. additional soiling of 0.3% bovine albumin at 35° C. and […] contact time. Neutralization was done using the Saponin-containing neutralizer as described in DIN EN 1276 (30 g/l Polysorbate 80+30 g/l Saponin+3 g/l Lecithin). Results are documented in the table below as logarithmic reduction (Ig R) in comparison to the number of microorganisms used for the test.
Benzalkonium chloride (BAC) and one of Lutensol® XP 30, Lutensol® XP 40 and Lutensol® XP 50 were formulated into a dilutable concentrated hard-surface cleaner. The finished formulations were pre-dissolved 1:80 in standardized hard water (DIN EN 1276-2010) and then diluted to 80% by adding 1 ml of the inoculate and 1 ml of bovine albumin solution to 8 ml of the pre-dissolved cleaner, so that in-test a dilution of 1:100 was obtained.
Antimicrobial testing of the above formulations in 1:100 dilution was done according to European Standard (DIN EN 1276-2010) under dirty conditions, i.e. additional soiling of 0.3% bovine albumin at 35° C. and 5 min contact time. Neutralization was done using the Saponin-containing neutralizer as described in DIN EN 1276 (30 g/l Polysorbate 80+30 g/l Saponin+3 g/l Lecithin). Results are documented in the table below as logarithmic reduction (Ig R) in comparison to the number of microorganisms used for the test. […]

The structures appear in SMILES notation. A value given as a limit tells only on which side of the number the result lay.

As for `CCCCCCCCCCCC[N+](C)(C)Cc1ccccc1.[Cl-]` [BAC, lauryl dimethyl benzyl ammonium chloride], the “E. coli logarithmic reduction (lg R)” value was <0.87 lg R (Example 1, BAC 40 ppm in-test, 1:100 dilution, pH ca. 8) and 0.4 lg R (Example 2, BAC 40 ppm in-test).
Take `CCCCCCCCCC[N+](C)(C)CCCCCCCCCC.[Cl-]` [DDAC, didecyldimethylammonium chloride]: the “E. coli logarithmic reduction (lg R)” value (Example 3, DDAC 20 ppm in-test) was 0.7 lg R.

The values are drawn from patent publication US20250359547A1, “ALKOXYLATED ALKANOLS FOR ENHANCING THE ACTIVITY OF ANTIMICROBIAL AGENTS” (BASF SE, priority 2022, published 2025).
